Assay results published in patent US20240398805A1, “QUINAZOLINE DERIVED COMPOUNDS AS EGFR INHIBITORS AND THEIR USES THEREOF” (ACCUTAR BIOTECHNOLOGY INC., priority 2021, published 2024).

Key:
Format in all cases: cell-based
HCC827 cells = assay: Cell growth inhibition (CellTiter-Glo, 3 days) in HCC827; details: Homo sapiens, 72 h, 3 days after administration
Procedure, shortened: (§1)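 Growth inhibition was scored by CellTiter-Glo luminescence after 3-day compound exposure at various concentrations. Cells were plated at 5000/well the day before treatment: A431 in DMEM and HCC827 in RPMI, each with 10% FBS.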

[1] = test system: HCC827-SVD cells (human EGFR exon 20 insertion mutant D770_N771 insSVD); assay: Cell growth inhibition (CellTiter-Glo, 3 days) in HCC827-SVD; details: 72 h, 3 days after administration
Procedure, shortened: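 HCC827 cells carrying lentiviral codon-optimized EGFR D770_N771 insSVD, with endogenous EGFR knocked out by CRISPR (single clone), seeded at 5000 cells/well in RPMI with 10% FBS. Viability read by CellTiter-Glo luminescence.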

[2] = test system: HCC827-ASV cells (human EGFR exon 20 insertion mutant A769_D770insASV); assay: Cell growth inhibition (CellTiter-Glo, 3 days) in HCC827-ASV; details: 72 h, 3 days after administration
Procedure, shortened: (§2)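 Growth inhibition used a CellTiter-Glo luminescence read-out after 3 days of compound exposure at various concentrations. Cells were plated the day before at 5000/well in RPMI plus 10% FBS. The lines are HCC827 transduced by lentivirus with codon-optimized EGFR ASV or ERBB2 YVMA exon 20 insertions.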

[3] = test system: HCC827-YVMA cells (human ERBB2 exon20 insertion mutant A775_G776ins YVMA); assay: Cell growth inhibition (CellTiter-Glo, 3 days) in HCC827-YVMA; details: 72 h, 3 days after administration
Procedure, shortened: as §2

A431 cells = assay: Cell growth inhibition (CellTiter-Glo, 3 days) in A431; details: Homo sapiens, A-431, 72 h, 3 days after administration
Procedure, shortened: as §1

| SMILES | GI50 (HCC827 cells) | GI50 [1] | GI50 [2] | GI50 [3] | GI50 (A431 cells) |
| --- | --- | --- | --- | --- | --- |
| C=CC(=O)N1CCC(Nc2cc3c(Nc4ccc(Oc5ccnc(N6CC[C@@H](F)C6)c5)cc4F)ncnc3cc2OC)CC1 [Example 195, (R)-1-(4-((4-((2-fluoro-4-((2-(3-fluoropyrrolidin-1-yl)pyridin-4-yl)oxy)phenyl)amino)-7-methoxyquinazolin-6-yl)amino)piperidin-1-yl)prop-2-en-1-one] | 0.1 to 0.3 µM | < 0.03 µM | < 0.03 µM | < 0.03 µM | 0.6 to 1 µM |
| C=CC(=O)N1CCC(Nc2cc3c(Nc4ccc(Oc5ccnc(N6CC[C@H](F)C6)c5)cc4F)ncnc3cc2OC)CC1 [Example 196, (S)-1-(4-((4-((2-fluoro-4-((2-(3-fluoropyrrolidin-1-yl)pyridin-4-yl)oxy)phenyl)amino)-7-methoxyquinazolin-6-yl)amino)piperidin-1-yl)prop-2-en-1-one] | 0.06 to 0.1 µM | < 0.03 µM | < 0.03 µM | < 0.03 µM | 0.1 to 0.3 µM |
| C=CC(=O)N1CCC(Nc2cc3c(Nc4ccc(Oc5ccnc(N6CC[C@@H](C)C6)c5)cc4F)ncnc3cc2OC)CC1 [Example 197, (R)-1-(4-((4-((2-fluoro-4-((2-(3-methylpyrrolidin-1-yl)pyridin-4-yl)oxy)phenyl)amino)-7-methoxyquinazolin-6-yl)amino)piperidin-1-yl)prop-2-en-1-one] | 0.06 to 0.1 µM | < 0.03 µM | < 0.03 µM | < 0.03 µM | 0.3 to 0.6 µM |
| C=CC(=O)N1CCC(Nc2cc3c(Nc4ccc(Oc5ccnc(N6CC[C@H](C)C6)c5)cc4F)ncnc3cc2OC)CC1 [Example 198, (S)-1-(4-((4-((2-fluoro-4-((2-(3-methylpyrrolidin-1-yl)pyridin-4-yl)oxy)phenyl)amino)-7-methoxyquinazolin-6-yl)amino)piperidin-1-yl)prop-2-en-1-one] | 0.03 to 0.06 µM | < 0.03 µM | < 0.03 µM | < 0.03 µM | 0.6 to 1 µM |
| C=CC(=O)N1CCC(Nc2cc3c(Nc4ccc(Oc5ccnc(N6CC7CC7C6)c5)cc4F)ncnc3cc2OC)CC1 (centres unmarked) [Example 199, 1-(4-((4-((4-((2-(3-azabicyclo[3.1.0]hexan-3-yl)pyridin-4-yl)oxy)-2-fluorophenyl)amino)-7-methoxyquinazolin-6-yl)amino)piperidin-1-yl)prop-2-en-1-one] | 0.1 to 0.3 µM | < 0.03 µM | < 0.03 µM | < 0.03 µM | 0.06 to 0.1 µM |
| C=CC(=O)N1CCC(Nc2cc3c(Nc4ccc(Oc5ccnc(N6CCC(C)(C#N)CC6)c5)cc4F)ncnc3cc2OC)CC1 [Example 200, 1-(4-(4-((6-((1-acryloylpiperidin-4-yl)amino)-7-methoxyquinazolin-4-yl)amino)-3-fluorophenoxy)pyridin-2-yl)-4-methylpiperidine-4-carbonitrile] | 0.06 to 0.1 µM | 0.03 to 0.06 µM | 0.03 to 0.06 µM | 0.06 to 0.1 µM | ≥ 1 µM |
| C=CC(=O)N1CCC(Nc2cc3c(Nc4ccc(Oc5ccnc(N6CC(F)(F)C6)c5)cc4F)ncnc3cc2OC)CC1 [Example 201, 1-(4-((4-((4-((2-(3,3-difluoroazetidin-1-yl)pyridin-4-yl)oxy)-2-fluorophenyl)amino)-7-methoxyquinazolin-6-yl)amino)piperidin-1-yl)prop-2-en-1-one] | 0.06 to 0.1 µM | < 0.03 µM | < 0.03 µM | < 0.03 µM | 0.6 to 1 µM |
| C=CC(=O)N1CCC(Nc2cc3c(Nc4ccc(Oc5ccnc(N6CC(C)(C)C6)c5)cc4F)ncnc3cc2OC)CC1 [Example 202, 1-(4-((4-((4-((2-(3,3-dimethylazetidin-1-yl)pyridin-4-yl)oxy)-2-fluorophenyl)amino)-7-methoxyquinazolin-6-yl)amino)piperidin-1-yl)prop-2-en-1-one] | < 0.03 µM | < 0.03 µM | < 0.03 µM | < 0.03 µM | 0.1 to 0.3 µM |
| C=CC(=O)N1CCC(Nc2cc3c(Nc4ccc(Oc5ccnc(N6CC(C)(O)C6)c5)cc4F)ncnc3cc2OC)CC1 [Example 203, 1-(4-((4-((2-fluoro-4-((2-(3-hydroxy-3-methylazetidin-1-yl)pyridin-4-yl)oxy)phenyl)amino)-7-methoxyquinazolin-6-yl)amino)piperidin-1-yl)prop-2-en-1-one] | 0.1 to 0.3 µM | < 0.03 µM | < 0.03 µM | < 0.03 µM | 0.1 to 0.3 µM |
| C=CC(=O)N1CCC(Nc2cc3c(Nc4ccc(Oc5ccnc(N6CC7(CCOCC7)C6)c5)cc4F)ncnc3cc2OC)CC1 [Example 204, 1-(4-((4-((4-((2-(7-oxa-2-azaspiro[3.5]nonan-2-yl)pyridin-4-yl)oxy)-2-fluorophenyl)amino)-7-methoxyquinazolin-6-yl)amino)piperidin-1-yl)prop-2-en-1-one] | 0.06 to 0.1 µM | < 0.03 µM | < 0.03 µM | < 0.03 µM | 0.1 to 0.3 µM |
| C=CC(=O)N1CCC(Nc2cc3c(Nc4ccc(Oc5ccnc(N6CC(C)(C#N)C6)c5)cc4F)ncnc3cc2OC)CC1 [Example 205, 1-(4-(4-((6-((1-acryloylpiperidin-4-yl)amino)-7-methoxyquinazolin-4-yl)amino)-3-fluorophenoxy)pyridin-2-yl)-3-methylazetidine-3-carbonitrile] | < 0.03 µM | < 0.03 µM | < 0.03 µM | < 0.03 µM | 0.1 to 0.3 µM |
| C=CC(=O)N1CCC(Nc2cc3c(Nc4ccc(Oc5ccnc(N6CC(O)(C(F)(F)F)C6)c5)cc4F)ncnc3cc2OC)CC1 [Example 206, 1-(4-((4-((2-fluoro-4-((2-(3-hydroxy-3-(trifluoromethyl)azetidin-1-yl)pyridin-4-yl)oxy)phenyl)amino)-7-methoxyquinazolin-6-yl)amino)piperidin-1-yl)prop-2-en-1-one] | 0.06 to 0.1 µM | < 0.03 µM | < 0.03 µM | < 0.03 µM | 0.1 to 0.3 µM |
| C=CC(=O)N1CCC(Nc2cc3c(Nc4ccc(Oc5ccnc(N6CC(C)(OC)C6)c5)cc4F)ncnc3cc2OC)CC1 [Example 207, 1-(4-((4-((2-fluoro-4-((2-(3-methoxy-3-methylazetidin-1-yl)pyridin-4-yl)oxy)phenyl)amino)-7-methoxyquinazolin-6-yl)amino)piperidin-1-yl)prop-2-en-1-one] | 0.03 to 0.06 µM | < 0.03 µM | < 0.03 µM | < 0.03 µM | 0.1 to 0.3 µM |
| C=CC(=O)N1CCC(Nc2cc3c(Nc4ccc(Oc5ccnc(N6CC(CC#N)C6)c5)cc4F)ncnc3cc2OC)CC1 [Example 208, 2-(1-(4-(4-((6-((1-acryloylpiperidin-4-yl)amino)-7-methoxyquinazolin-4-yl)amino)-3-fluorophenoxy)pyridin-2-yl)azetidin-3-yl)acetonitrile] | 0.1 to 0.3 µM | < 0.03 µM | < 0.03 µM | 0.03 to 0.06 µM | 0.6 to 1 µM |
| C=CC(=O)N1CCC(Nc2cc3c(Nc4ccc(Oc5ccnc(CN6CCCC6)c5)cc4F)ncnc3cc2OC)CC1 [Example 209, 1-(4-((4-((2-fluoro-4-((2-(pyrrolidin-1-ylmethyl)pyridin-4-yl)oxy)phenyl)amino)-7-methoxyquinazolin-6-yl)amino)piperidin-1-yl)prop-2-en-1-one] | 0.1 to 0.3 µM | 0.1 to 0.3 µM | 0.1 to 0.3 µM | 0.06 to 0.1 µM | 0.6 to 1 µM |
| C=CC(=O)N1CCC(Nc2cc3c(Nc4ccc(Oc5ccnc(C(=O)OC)c5)cc4F)ncnc3cc2OC)CC1 [Example 211, methyl 4-(4-((6-((1-acryloylpiperidin-4-yl)amino)-7-methoxyquinazolin-4-yl)amino)-3-fluorophenoxy) picolinate] | ≥ 1 µM | ≥ 1 µM | ≥ 1 µM | 0.6 to 1 µM | ≥ 1 µM |
| C=CC(=O)N1CCC(Nc2cc3c(Nc4ccc(Oc5ccnc(C(=O)O)c5)cc4F)ncnc3cc2OC)CC1 [Example 212, 4-(4-((6-((1-acryloylpiperidin-4-yl)amino)-7-methoxyquinazolin-4-yl)amino)-3-fluorophenoxy) picolinic acid] | ≥ 1 µM | ≥ 1 µM | ≥ 1 µM | ≥ 1 µM | ≥ 1 µM |
| C=CC(=O)N1CCC(Nc2cc3c(Nc4ccc(Oc5ccnc(C6=CCN(C)CC6)c5)cc4F)ncnc3cc2OC)CC1 [Example 213, 1-(4-((4-((2-fluoro-4-((1′-methyl-1′,2′,3′,6′-tetrahydro-[2,4′-bipyridin]-4-yl)oxy)phenyl)amino)-7-methoxyquinazolin-6-yl)amino)piperidin-1-yl)prop-2-en-1-one] | 0.3 to 0.6 µM | 0.3 to 0.6 µM | 0.1 to 0.3 µM | 0.3 to 0.6 µM | ≥ 1 µM |
| C=CC(=O)N1CCC(Nc2cc3c(Nc4ccc(Oc5ccnc(N6CCC[C@@H](O)C6)c5)cc4F)ncnc3cc2OC)CC1 [Example 214, (R)-1-(4-((4-((2-fluoro-4-((2-(3-hydroxypiperidin-1-yl)pyridin-4-yl)oxy)phenyl)amino)-7-methoxyquinazolin-6-yl)amino)piperidin-1-yl)prop-2-en-1-one] | 0.3 to 0.6 µM | 0.03 to 0.06 µM | < 0.03 µM | < 0.03 µM | ≥ 1 µM |
